In US6734161B1, “Peptide nucleic acids having antibacterial activity” (priority 1997, dated 2004):
{LysNH2} = C-terminal lysine amide

Experiments:
[1] = test system: E. coli lac repressor gene (start codon region); experiment: PNA-mediated upregulation of beta-galactosidase on X-gal LB/agar plate; assay type: cell-based; conditions: lawn of E. coli AS19 on LB/agar with X-gal
Protocol: An antisense PNA (H-[…]-Lys-NH2, SEQ ID No: 27) was prepared targeting the start codon region of the E. coli lac repressor gene. The lacR gene normally limits beta-galactosidase expression in E. coli cells that are grown in nutrient rich conditions, without lactose. The anti-lacR PNA (SEQ ID No: 27) was applied to a lawn of E. coli AS19 cells grown on a LB/agar plate containing a chromogenic beta-galactosidase substrate (X-gal). The petri plate was prepared as described above.

[2] = test system: β-lactamase (start codon region); assay type: biochemical, E. coli; conditions: for IC50: read-out: PNA concentration required for 50 % inhibition (IC50) of β-lactamase activity, S-30 cell extract, unmodified gene
β-lactamase = conditions: for inhibition of β-lactamase production in strain carrying two base substitutions: AS19 transformed with pLac-2, compared with pBR322; for inhibition of β-lactamase production in strain carrying 6 base substitutions: AS19 transformed with pLac-6
Protocol: The cultures were grown at 37° C. to approximately 0.5 O.D. 550 nm. β-Lactamase activity was determined using the chromogenic β-lactamase substrate PADAC (Calbiochem, San Diego, Calif.) and absorbance measurements at 570 nm (Kobayashi, et al., Antimicrob. Agents Chemotherap., 1988, 32, 1040). β-Galactosidase activity was determined using the substrate o-nitrophenyl-β-galactoside (ONPG) and absorbance measurements at 420 nm as described previously (Miller, J. H., Experiments in Molecular Genetics, 1972, Cold Spring Harbor, N.Y., 1972, 82-85).
The cultures were grown at 37° C. to approximately 0.5 O.D. 550 nm.
The activity of PNAs in an in vivo assay was determined. […] 5-8 were included in cultures of permeable E. coli strain AS19 (Sekiguchi, ibid.) and the expression of β-galactosidase and β-lactamase was measured in cells exposed to IPTG at various time points.
The inhibition of β-lactamase production was evaluated by growing cells in the presence of PNA from an early stage to mid log phase.
The in vivo specificity of selected PNAs (SEQ ID NOs. 6 and 7) was determined using E. coli AS19 that was transformed with pBR322 and its derivatives containing the target site mutations (pLac-2 and pLac-6).

[3] = test system: β-Galactosidase (start codon region); experiment: in vitro coupled transcription/translation in E. coli S-30 cell extract, β-galactosidase production; assay type: biochemical
Protocol: (§1) Strain D10-1 was grown to mid log phase in LB media supplemented with 4 g/L glucose. The preparation of S-30 cell extracts and coupled transcription/translation reactions were carried out as described in Ellman, J., ibid., using plasmid pMAS2, which carries the E. coli gene for β-galactosidase.
PNA oligomers (SEQ ID NOs. 5-8 above) were evaluated in an in vitro assay in which plasmid DNA encoding the genes for β-galactosidase and β-lactamase were added to a template depleted e. coli S-30 cell extract along with the reagents necessary for coupled transcription and translation (Chen, H. Z., Zubay, G., Methods in Enzymol., 1983, 101, 674-690; Ellman, J., et al., Methods in Enzymol., 1991, 202, 301-337). The assay is sensitive to inhibitors that prevent initiation of translation.

Ribosomal RNAs [4] = experiment: cell-free translation assay (β-galactosidase production) with PNA targeted to ribosomal RNAs; assay type: biochemical, E. coli; conditions: S-30 cell extract, ONPG
Protocol: as §1
Plasmid DNA encoding β-galactosidase was added to a template depleted E. coli S-30 cell extract along with the reagents necessary for coupled transcription/translation (Chen, ibid; Ellman, J., ibid). Production of β-galactosidase was measured […] using the substrate ONPG (Miller, ibid). The assay is sensitive to inhibitors that prevent complete or accurate translation of the enzyme. Several of the targeted PNAs inhibited β-galactosidase production in a dose dependent manner, with IC50s in the nanomolar range. […] The SEQ ID Nos. and the sequences are shown below in Table 2.
PNAs of similar composition, but unrelated sequence, were assayed along with targeted PNAs as controls for non-sequence specific effects. […] No inhibition was detected at a dose of 1 μM for the control PNAs.

Ribosomal RNAs [5] = experiment: transcription vs. translation assay (32P-UTP and 35S-methionine incorporation); assay type: biochemical, E. coli; conditions: increasing concentrations of PNA
Protocol: Transcription in the cell-free system was assayed using reactions that contained 34 μM of cold UTP and 1 μCi ^32P-UTP. After 30 minutes the reactions were stopped with 10 volumes of 5% TCA and incubated on ice for 30 minutes. Translation in the cell-free system was assayed using reactions that contained 5 mM cold UTP and 1 μCi ^35S-methionine. After 30 minutes the reactions were stopped with an equal volume of 1 M NaOH and placed at 37° C. for 15 minutes. An equal volume of cold 50% TCA containing 2% casein hydrolysate acids was added and after 30 minutes on ice, 1 mL of 5% TCA was added. The TCA precipitable material having radioactivity was collected by vacuum filtration, rinsed five times with 5% TCA and dried. Cerenkov and scintillation counting were used to determine ^32P-UTP and ^35S-methionine incorporation.
The transcription and translation activities yielding β-galactosidase was examined using ^32P-UTP and ^35S-methionine in the assay procedures of Example 5. With increasing concentrations of targeted PNA (SEQ ID NOs. 12 and 13), the level of radioactive methionine incorporation was reduced.

E. coli strain K12 = experiment: cell growth assay using E. coli (K12); conditions: 2 μL applied onto solid media, overnight 37° C.
Protocol: Growth assays were initiated using Luria Broth (LB) Media inoculated with 1% (v/v) of an overnight E. coli culture. For solid media cultures, 2 mL of molten LB/agar media was inoculated and spread onto pre-warmed (LB)/agar plates. The excess molten media was poured off and the plates were left to solidity for 30 minutes. PNA and antibiotic solutions were pipetted (2 μL) directly onto the solidified overlay and the plates were incubated overnight at 37° C. For liquid media cultures, 100 μL of inoculated LB media was aliquoted into microtitre plate wells containing PNA or antibiotic solutions and the plates were incubated overnight at 37° C. The presence or absence of growth was assessed visually as a zone of clearing on solid media or as a lack of turbidity in liquid cultures.
The inhibition of cell growth was examined using PNA sequences 9-18 in E. coli grown on agar media. Luria broth (LB)/agar plates were prepared with a thin overlay of media containing an inoculum of E. coli strain K12. PNA solutions were applied directly onto the solidified overlay by direct pipetting of 2 μL aliquotes. After overnight incubation at 37° C., a lawn of bacterial cells was established.

[6] = test system: E. coli mutant strain (AS19); experiment: cell growth assay using E. coli (AS19); conditions: 100 μL liquid cultures
Protocol: Growth assays were initiated using Luria Broth (LB) Media inoculated with 1% (v/v) of an overnight E. coli culture. […] For liquid media cultures, 100 μL of inoculated LB media was aliquoted into microtitre plate wells containing PNA or antibiotic solutions and the plates were incubated overnight at 37° C. The presence or absence of growth was assessed visually as a zone of clearing on solid media or as a lack of turbidity in liquid cultures.
The assay was repeated with the cells in 100 μL liquid cultures. […] The inhibition was determined to be that concentration which visibly limited the growth of the E. coli in a 100 μL culture.

[7] = concentrations as high as 400 nM

## 27 (ACATTCACCACCCTG; all peptide nucleic acid (PNA), 3' {LysNH2}; further chemistry not fully specified) [compound 27]
[1]
  beta-galactosidase production (blue zone at sites of application): Increased beta-galactosidase production

## 7 (GAATACTCATACTCT; chemistry not given here) [compound 7]
[2]
  IC50: 200 nM
β-lactamase
  inhibition of β-lactamase production in strain carrying two base substitutions: reduced
  inhibition of β-lactamase production in strain carrying 6 base substitutions: abolished

## 8 (ACGCCACATCTTCGC; chemistry not given here) [compound 8]
[3]; [7]
  inhibition of β-galactosidase production: no inhibition
[2]; [7]
  inhibition of β-lactamase production: no inhibition

## 6 (TACTCATACTCTTCC; chemistry not given here) [compound 6]
[2]
  IC50: 30 nM
β-lactamase
  inhibition of β-lactamase production in strain carrying two base substitutions: reduced
  inhibition of β-lactamase production in strain carrying 6 base substitutions: abolished

## 13 (NTNTNNTNTCCTCTC; listed as DNA, chemistry not given here) [compound 13]
Ribosomal RNAs [4]
  IC50: 350 nM
Ribosomal RNAs [5]
  level of radioactive UTP (transcription): remained the same
  level of radioactive methionine incorporation (translation): reduced
E. coli strain K12
  growth inhibition (zones of clearing): inhibited cell growth
[6]
  concentration which visibly limited growth: 10 µM

## 5 (GGTCATAGCTGTTTC; all peptide nucleic acid (PNA), 3' {LysNH2}; further chemistry not fully specified) [compound 5]
[3]; read-out: PNA concentration required for 50 % inhibition (IC50) of β-galactosidase activity, S-30 cell extract, coupled transcription and translation
  IC50: 10 nM

## 12 (TTNTNNNTTTNTNTCTTTCCGTCTT; listed as DNA, chemistry not given here) [compound 12]
Ribosomal RNAs [4]
  IC50: 200 nM
Ribosomal RNAs [5]
  level of radioactive UTP (transcription): remained the same
  level of radioactive methionine incorporation (translation): reduced
E. coli strain K12
  growth inhibition (zones of clearing): inhibited cell growth
[6]
  concentration which visibly limited growth: 30 µM
